Data reported in US20110230403A1, “GLYCOSIDE DERIVATIVES AND USES THEREOF” (NOVARTIS AG, priority 2008, published 2011).

Columns and labels:
human SGLT1 = molecular target: T1, human SGLT1 (Homo sapiens, UniProt P13866); test: hSGLT1 assay: analogous [14C]-AMG uptake in CHO-K1 or HEK293 cells expressing hSGLT1; assay type: cell-based; details: n = 1-4, hSGLT1-transfected cells
T1 construct: expressed in transfected cells; host or cells: CHO-K1 or HEK293 cells
T1 sequence (P13866 1-664): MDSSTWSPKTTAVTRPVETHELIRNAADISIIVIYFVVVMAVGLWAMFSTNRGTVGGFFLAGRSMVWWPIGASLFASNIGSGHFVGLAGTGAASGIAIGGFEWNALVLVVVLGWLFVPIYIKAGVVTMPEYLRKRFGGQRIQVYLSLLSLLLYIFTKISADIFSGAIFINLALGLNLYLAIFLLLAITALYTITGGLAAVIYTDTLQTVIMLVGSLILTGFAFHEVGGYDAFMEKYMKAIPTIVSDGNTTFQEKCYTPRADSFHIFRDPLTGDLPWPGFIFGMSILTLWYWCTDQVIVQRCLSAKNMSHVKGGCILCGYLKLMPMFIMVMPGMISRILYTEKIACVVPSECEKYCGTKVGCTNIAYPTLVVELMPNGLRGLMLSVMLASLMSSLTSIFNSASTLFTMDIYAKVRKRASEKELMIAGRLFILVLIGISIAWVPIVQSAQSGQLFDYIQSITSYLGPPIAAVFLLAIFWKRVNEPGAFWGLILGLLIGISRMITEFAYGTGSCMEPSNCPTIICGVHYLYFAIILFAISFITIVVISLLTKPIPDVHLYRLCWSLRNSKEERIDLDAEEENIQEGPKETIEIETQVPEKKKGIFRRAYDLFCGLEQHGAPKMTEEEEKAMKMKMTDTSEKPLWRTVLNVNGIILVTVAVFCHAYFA
Description: To determine human SGLT1 inhibitory activity, an analogous test was set up in which the cDNA for hSGLTI (Genbank Ace. No. NM000343) instead of hSGLT2 cDNA is expressed in CHO-K1 or HEK293 cells. The uptake assay buffer in the case of the hSGLT1 assay contains 10 mM HEPES, 5 mM Tris, 140 mM NaCl, 2 mM KCl, 1 mM CaCl2, and 1 mM MgCl2, pH 7.4 containing 0.5 mM of α-methyl-D-glucopyranoside (AMG), 10 μM of [^14C]-α-methyl-D-glucopyranoside and different inhibitor concentrations.

[1] = molecular target: T2, human sodium glucose cotransporter 2 (Homo sapiens, UniProt P31639); test: SGLT-2 assay: 14C-AMG uptake in CHO-hSGLT2 or HEK293-hSGLT2 cells; assay type: cell-based; details: n = 1-4, hSGLT2-transfected cells, read-out: SGLT2 IC50 nM (n = 1-4)
T2 construct: expressed in transfected cells; host or cells: CHO-K1 (ATCC CCL-61) or HEK293 (ATCC CRL-1573), stably transfected with pZeoSV expression vector
T2 sequence (P31639 1-672): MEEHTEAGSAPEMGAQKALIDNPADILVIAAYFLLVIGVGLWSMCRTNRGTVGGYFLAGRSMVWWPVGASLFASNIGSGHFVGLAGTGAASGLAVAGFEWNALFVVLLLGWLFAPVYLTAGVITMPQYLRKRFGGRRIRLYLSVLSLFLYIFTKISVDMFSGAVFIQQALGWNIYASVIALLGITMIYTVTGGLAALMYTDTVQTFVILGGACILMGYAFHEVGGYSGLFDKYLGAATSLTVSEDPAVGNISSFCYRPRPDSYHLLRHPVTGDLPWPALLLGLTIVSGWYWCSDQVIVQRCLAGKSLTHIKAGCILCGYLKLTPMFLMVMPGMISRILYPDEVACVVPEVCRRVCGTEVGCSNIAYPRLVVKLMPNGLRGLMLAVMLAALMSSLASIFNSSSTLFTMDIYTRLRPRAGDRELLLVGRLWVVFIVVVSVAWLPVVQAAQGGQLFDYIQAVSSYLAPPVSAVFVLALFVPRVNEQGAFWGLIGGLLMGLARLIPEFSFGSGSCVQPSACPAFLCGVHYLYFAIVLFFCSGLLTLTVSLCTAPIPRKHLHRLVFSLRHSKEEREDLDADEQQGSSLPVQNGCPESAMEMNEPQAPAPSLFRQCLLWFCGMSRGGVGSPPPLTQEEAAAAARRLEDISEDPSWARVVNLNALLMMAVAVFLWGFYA
Description: These cell lines transport 14 C-labelled alpha-methyl-glucopyranoside (14 C-AMG, Amersham) into the interior of the cell in sodium-dependent manner.
The SGLT-2 assay is carried out as follows: CHO-hSGLT2 cells are cultivated in Ham's F12 Medium (BioWhittaker) with 10% foetal calf serum and 250 μg/mL zeocin (Invitrogen), and HEK293-hSGLT2 cells are cultivated in DMEM medium with 10% foetal calf serum and 250 μg/mL zeocin (Invitrogen). The cells are detached from the culture flasks by washing twice with PBS and subsequently treating with trypsin/EDTA. After the addition of cell culture medium the cells are centrifuged, resuspended in culture medium and counted in a Casy cell counter. Then 40,000 cells per well are seeded into a white, 96-well plate coated with poly-D-Iysine and incubated overnight at 37° C., 5% CO2. The cells are washenwice with 250 μl of assay buffer (Hanks Balanced Salt Solution, 137 mM NaCl, 5.4 mM KCl, 2.8 mM CaCl2, 1.2 mM MgSO4 and 10 mM HEPES (pH 7.4), 50 μg/mL of gentamycin). 250 μl of assay buffer and 5 μl of test compound are then added to each well and the plate is incubated for a further 15 minutes in the incubator. 5 μl of 10% DMSO are used as the negative control. The reaction is started by adding 5 μl of 14 C-AMG (0.05 μCi) to each well. After 2 hours' incubation at 37° C., 5% CO2, the cells are washed again with 250 μl of PBS (200C) and then lysed by the addition of 25 μl of 0.1 N NaOH (5 min. at 37° C.). 200 μl of MicroScint20 (Packard) are added to each well and incubation is continued for a further 20 min at 37° C. After this incubation the radioactivity of the 14 C-AMG absorbed is measured in a Topcount (Packard) using a 14 C scintillation program.

IC50 (human SGLT1) [nM]	IC50 [1] [nM]	SMILES
< 100	42	CCOc1ccc(Cc2cc([C@@H]3O[C@H](CSc4cccc(C(N)=O)c4)[C@@H](O)[C@H](O)[C@H]3O)ccc2Cl)cc1 [Example 78, 3-{(2S,3S,4R,5R,6S)-6-[4-Chloro-3-(4-ethoxy-benzyl)-phenyl]-3,4,5-trihydroxy-tetrahydro-pyran-2-ylmethylsulfanyl}-benzamide]
< 50	6	CCOc1ccc(Cc2cc([C@@H]3O[C@H](CSc4cc(C(=O)NC)ccc4F)[C@@H](O)[C@H](O)[C@H]3O)ccc2Cl)cc1 [Example 27, 3-{(2S,3S,4R,5R,6S)-6-[4-Chloro-3-(4-ethoxy-benzyl)-phenyl]-3,4,5-trihydroxy-tetrahydro-pyran-2-ylmethylsulfanyl}-4-fluoro-N-methyl-benzamide]
< 50	14	CCOc1ccc(Cc2cc([C@@H]3O[C@H](CSc4cccc(C(=O)N5CCCC5)c4)[C@@H](O)[C@H](O)[C@H]3O)ccc2Cl)cc1 [Example 47, (3-{(2S,3S,4R,5R,6S)-6-[4-Chloro-3-(4-ethoxy-benzyl)-phenyl]-3,4,5-trihydroxy-tetrahydro-pyran-2-ylmethylsulfanyl}-phenyl)-pyrrolidin-1 yl-methanone]
< 1000	20	CCOc1ccc(Cc2cc([C@@H]3O[C@H](CSc4nnnn4C)[C@@H](O)[C@H](O)[C@H]3O)ccc2Cl)cc1 [Example 10, (2S,3R,4R,5S,6S)-2-[4-Chloro-3-(4-ethoxy-benzyl)-phenyl]-6-(1-methyl-1H-tetrazol-5-ylsulfanylmethyl)-tetrahydro-pyran-3,4,5-triol]
< 50	3	CCOc1ccc(Cc2cc([C@@H]3O[C@H](CSc4cc(C(=O)N5CCC5)ccc4F)[C@@H](O)[C@H](O)[C@H]3O)ccc2Cl)cc1 [Example 37, Azetidin-1-yl-(3-{(2S,3S,4R,5R,6S)-6-[4-chloro-3-(4-ethoxy-benzyl)-phenyl]-3,4,5-trihydroxy-tetrahydro-pyran-2-ylmethylsulfanyl}-4-fluoro-phenyl)-methanone]
